The experiment deals with A549 NSCLC cells. In words: Cellular cytotoxicity assay (Alamar Blue), A549. The experiment is classed as cell-based. As to conditions: Homo sapiens, 72 h, upper end given as ≧100, read-out: IC50 (μM), cytotoxicity towards A549 NSCLC cells. The method in brief:
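Resazurin-to-resorufin fluorescence (ex 544, em 590 nm, after 4 h) gave viability as % of untreated cells following 72 h compound exposure at 37 °C. Compounds were added in semi-logarithmic dilutions 24 h post-seeding, quadruplicate wells; IC50 fitted by non-linear regression of concentration-effect curves.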
(In general: Alamar Blue is a resazurin reagent that responds to reducing activity.)

By IC50 is commonly meant the midpoint of a concentration-inhibition curve. `CCCCCNC(=NC#N)N1CCc2nc(C(=O)Nc3ccccc3N)sc2C1` [Example 121, N-(2-aminophenyl)-5-[(cyanoimino)(pentylamino)methyl]-4,5,6,7-tetrahydro[1,3]thiazolo[5,4-c]pyridine-2-carboxamide]: the concentration for half-maximal inhibition (IC50) was not below 0.2 µM. Then `COc1ccc(NC(=C[N+](=O)[O-])N2CCc3nc(C(=O)Nc4ccccc4N)sc3C2)cc1` [Example 137, N-(2-aminophenyl)-5-{1-[(4-methoxyphenyl)amino]-2-nitroyinyl}-4,5,6,7-tetrahydro[1,3]thiazolo[5,4-c]pyridine-2-carboxamide], with not below 0.2 µM.

Regarding `CC(C)c1ccc(N)c(NC(=O)c2nc3c(s2)CN(C(=O)Nc2cccc4cnccc24)CC3)c1` [Example 49, N^2-(2-amino-5-isopropylphenyl)-N^5-isoquinolin-5-yl-6,7-dihydro[1,3]thiazolo[5,4-c]pyridine-2,5(4H)-dicarboxamide], the IC50 is not below 0.2 µM. Next, `CN(C)c1ccc(NC(=O)N2CCc3nc(C(=O)Nc4cc(-c5cccs5)ccc4N)sc3C2)cc1` [Example 55, N^2-[2-amino-5-(2-thienyl)phenyl]-N^5-[4-(dimethylamino)phenyl]-6,7-dihydro[1,3]thiazolo[5,4-c]pyridine-2,5(4H)-dicarboxamide]: not below 0.2 µM.

For the compound `COCCN(C)C(=O)N1CCc2nc(C(=O)Nc3ccccc3N)sc2C1` [Example 20, N^2-(2-aminophenyl)-N^5-(2-methoxyethyl)-N^5-methyl-6,7-dihydro[1,3]thiazolo[5,4-c]pyridine-2,5 (41:1)-dicarboxamide], the half-maximal inhibitory concentration (IC50) is not below 0.2 µM. Next, `CC(C)c1ccc(N)c(NC(=O)c2nc3c(s2)CN(C(=O)Nc2ccc(N(C)C)cc2)CC3)c1` [Example 50, N^2-(2-amino-5-isopropylphenyl)-N^5-[4-(dimethylamino)phenyl]-6,7-dihydro[1,3]thiazolo[5,4-c]pyridine-2,5(4H)-dicarboxamide]: not below 0.2 µM; `CC(C)c1ccc(N)c(NC(=O)c2nc3c(s2)CN(C(=C[N+](=O)[O-])Nc2ccccc2)CC3)c1` [Example 145, N-(2-amino-5-isopropylphenyl)-5-[1-anilino-2-nitrovinyl]-4,5,6,7-tetrahydro[1,3]thiazolo[5,4-c]pyridine-2-carboxamide]: not below 0.2 µM. For `CCCCNC(=S)N1CCc2nc(C(=O)Nc3ccccc3N)sc2C1` [Example 105], the half-inhibitory concentration (IC50) is not below 0.2 µM. Then `COc1ccc(N)c(NC(=O)c2nc3c(s2)CN(C(=S)Nc2cccnc2)CC3)c1` [Example 107, N-(2-amino-5-methoxyphenyl)-5-[(pyridin-3-ylamino)carbonothioyl]-4,5,6,7-tetrahydro[1,3]thiazolo[5,4-c]pyridine-2-carboxamide], with not below 0.2 µM; and `COCC(=O)N1CCc2nc(C(=O)Nc3ccccc3N)sc2C1` [Example 177, N-(2-aminophenyl)-5-(methoxyacetyl)-4,5,6,7-tetrahydro[1,3]thiazolo[5,4-c]pyridine-2-carboxamide], with not below 0.2 µM; and `Nc1ccccc1NC(=O)c1nc2c(s1)CN(C(=O)c1cnc3ccccc3c1)CC2` [Example 94, N-(2-aminophenyl)-5-(quinolin-3-ylcarbonyl)-4,5,6,7-tetrahydro[1,3]thiazolo[5,4-c]pyridine-2-carboxamide], with not below 0.2 µM. Next, `CCCCNC(=C[N+](=O)[O-])N1CCc2nc(C(=O)Nc3ccccc3N)sc2C1` [Example 138, N-(2-aminophenyl)-5-[1-(butylamino)-2-nitrovinyl]-4,5,6,7-tetrahydro[1,3]thiazolo[5,4-c]pyridine-2-carboxamide]: not below 0.2 µM; `COc1ccc(N=C(C)N2CCc3nc(C(=O)Nc4ccccc4N)sc3C2)cc1OC` [Example 127, N-(2-aminophenyl)-5-[N-(3,4-dimethoxyphenyl)ethanimidoyl]-4,5,6,7 tetrahydro[1,3]thiazolo[5,4-c]pyridine-2-carboxamide]: not below 0.2 µM; `COc1ccc(NC(=O)N2CCc3nc(C(=O)Nc4cc(-c5ccsc5)ccc4N)sc3C2)cc1` [Example 56, N^2-[2-amino-5-(3-thienyl)phenyl]-N^5-(4-methoxyphenyl)-6,7-dihydro[1,3]thiazolo[5,4-c]pyridine-2,5(4H)-dicarboxamide]: not below 0.2 µM. Next, `CC(=Nc1ccccc1)N1CCc2nc(C(=O)Nc3ccccc3N)sc2C1` [Example 126, N-(2-aminophenyl)-5-[N-phenylethanimidoyl]-4,5,6,7-tetrahydro[1,3]thiazolo[5,4-c]pyridine-2-carboxamide]: not below 0.2 µM. For the compound `Nc1ccccc1NC(=O)c1nc2c(s1)CN(C(=O)COc1ccc3ccccc3c1)CC2` [Example 175, N-(2-aminophenyl)-5-[(2-naphthyloxy)acetyl]-4,5,6,7-tetrahydro[1,3]thiazolo[5,4-c]pyridine-2-carboxamide], the 50% inhibitory concentration (IC50) is not below 0.2 µM. Consider `Nc1ccccc1NC(=O)c1nc2c(s1)CN(S(=O)(=O)c1ccc(OC(F)F)cc1)CC2` [Example 166, N-(2-aminophenyl)-5-{[4-(difluoromethoxy)phenyl]sulfonyl}-4,5,6,7-tetrahydro[1,3]thiazolo[5,4-c]pyridine-2-carboxamide], for which the IC50 was not below 0.2 µM. For the compound `Nc1ccccc1NC(=O)c1nc2c(s1)CN(C(=O)Nc1ccc(Oc3ccccc3)cc1)CC2` [Example 6, N^2-(2-aminophenyl)-N5-(4-phenoxyphenyl)-6,7-dihydro[1,3]thiazolo[5,4-c]pyridine-2,5(4H)-dicarboxamide], the IC50 is not below 0.2 µM.

`COc1ccc(N)c(NC(=O)c2nc3c(s2)CN(C(=Nc2ccccc2)NC#N)CC3)c1` [Example 123, N-(2-amino-5-methoxyphenyl)-5-[(cyanoamino)(phenylimino)methyl]-4,5,6,7-tetrahydro[1,3]thiazolo[5,4-c]pyridine-2-carboxamide]: the IC50 was not below 0.2 µM. Next, `CCCCOC(=O)N1CCc2nc(C(=O)Nc3ccccc3N)sc2C1` [Example 187, Butyl 2-[(2-aminophenyl)carbamoyl]-6,7-dihydro[1,3]thiazolo[5,4-c]pyridine-5(4H)-carboxylate]: not below 0.2 µM. Next, `COc1ccc(N)c(NC(=O)c2nc3c(s2)CN(C(=C[N+](=O)[O-])Nc2ccc(C(C)C)cc2)CC3)c1` [Example 143, N-(2-amino-5-methoxyphenyl)-5-{1-[(4-isopropylphenyl)amino]-2-nitrovinyl}-4,5,6,7-tetrahydro[1,3]thiazolo[5,4-c]pyridine-2-carboxamide]: not below 0.2 µM; `CN(C)c1ccc(C(=O)N2CCc3nc(C(=O)Nc4ccccc4N)sc3C2)cc1` [Example 91, N-(2-aminophenyl)-5-[4-(dimethylamino)benzoyl]-4,5,6,7-tetrahydro[1,3]thiazolo[5,4-c]pyridine-2-carboxamide]: not below 0.2 µM. Next, `COc1ccc(N)c(NC(=O)c2nc3c(s2)CN(C(=O)Nc2cccc4cnccc24)CC3)c1` [Example 46, N^2-(2-amino-5-methoxyphenyl)-N^5-isoquinolin-5-yl-6,7-dihydro[1,3]thiazolo[5,4-c]pyridine-2,5(4H)-dicarboxamide]: not below 0.2 µM; `Nc1ccccc1NC(=O)c1nc2c(s1)CN(C(=O)C(=O)Nc1cccc3cnccc13)CC2` [Example 68, N-(2-aminophenyl)-5-[(isoquinolin-5-ylamino)(oxo)acetyl]-4,5,6,7-tetrahydro[1,3]thiazolo[5,4-c]pyridine-2-carboxamide]: not below 0.2 µM. As for `CN(C)c1ccc(NC(=O)C(=O)N2CCc3nc(C(=O)Nc4ccccc4N)sc3C2)cc1` [Example 64, N-(2-aminophenyl)-5-[{[4-(dimethylamino)phenyl]amino}(oxo)acetyl]-4,5,6,7-tetrahydro[1,3]thiazolo[5,4-c]pyridine-2-carboxamide], the half-inhibitory concentration (IC50) is not below 0.2 µM.

As for `CCCCNC(=O)C(=O)N1CCc2nc(C(=O)Nc3cc(C(C)C)ccc3N)sc2C1` [Example 84, N-(2-amino-5-isopropylphenyl)-5-[(butylamino)(oxo)acetyl]-4,5,6,7-tetrahydro[1,3]thiazolo[5,4-c]pyridine-2-carboxamide], the IC50 is not below 0.2 µM. Next, `COc1ccc(NC(=O)C(=O)N2CCc3nc(C(=O)Nc4cc(C(C)C)ccc4N)sc3C2)cc1OC` [Example 80, N-(2-amino-5-isopropylphenyl)-5-{[(3,4-dimethoxyphenyl)amino](oxo)acetyl}-4,5,6,7-tetrahydro[1,3]thiazolo[5,4-c]pyridine-2-carboxamide]: not below 0.2 µM; `CN(C)c1cccc(N(C)C(=O)N2CCc3nc(C(=O)Nc4ccccc4N)sc3C2)c1` [Example 23, N^2-(2-aminophenyl)-N^5-[3-(dimethylamino)phenyl]-N^5-methyl-6,7-dihydro-[1,3]-thiazolo[5,4-c]pyridine-2,5(4H)-dicarboxamide]: not below 0.2 µM; `COc1ccc(N=C(C)N2CCc3nc(C(=O)Nc4cc(C(C)C)ccc4N)sc3C2)cc1OC` [Example 133, N-(2-amino-5-isopropylphenyl)-5-[N-(3,4-dimethoxyphenyl)ethanimidoyl]-4,5,6,7-tetrahydro[1,3]thiazolo[5,4-c]pyridine-2-carboxamide]: not below 0.2 µM.

These data come from patent US8440830B2, “Tetrahydro-fused pyridines as histone deacetylase inhibitors” (4SC AG, priority 2007, dated 2013).
